Here are results for eight molecules from US12649722B2, “Herbicidal cinnoline derivatives” (SYNGENTA CROP PROTECTION AG, priority 2020, dated 2026).

Holding throughout (assay type): in vivo
The test system of assay [1] is Amaranthus retoflexus (AMARE). As to the kind of experiment: Pre-emergence Test, AMARE. Conditions: 1000 g/ha, evaluated after 13 days.
Assay [2] has as its system Ipornoea hederacea (IPOHE). As to the kind of experiment: Pre-emergence Test, IPOHE. Conditions: 1000 g/ha, evaluated after 13 days.
For assay [3], the system named is Echinochloa crus-galli (ECHCG). The assay can be described thus: Pre-emergence Test, ECHCG. The following applies: 1000 g/ha, evaluated after 13 days.
Assay [4] has as its system Setaria faberi (SETFA). The assay can be described thus: Pre-emergence Test, SETFA. The following applies: 1000 g/ha, evaluated after 13 days.
The subject of assay [5] is ZEAMX. As to the kind of experiment: Pre-emergence Test, ZEAMX. The following applies: 1000 g/ha, evaluated after 13 days.
Assay [6] concerns ABUTH. The assay can be described thus: Pre-emergence Test, ABUTH. The following applies: 1000 g/ha, evaluated after 13 days.
Assay [7] relates to Amaranthus retoflexus (AMARE). The assay can be described thus: Post-emergence Test, AMARE. Conditions: sprayed after 8 days cultivation, 1000 g/ha, evaluated after 13 days. On the procedure: (§1) Seeds of a variety of test species are sown in standard soil in pots (Amaranthus retoflexus (AMARE), Solarium nigrum (SOLNI), Setaria faberi (SETFA), Lolium perenne (LOLPE), Echinochloa crus-galli (ECHCG), Ipornoea hederacea (IPOHE)). After 8 days cultivation under controlled conditions in a glasshouse (at 24° C./16° C., day/night; 14 hours light; 65% humidity), the plants are sprayed with an aqueous spray solution derived from the formulation of the technical active ingredient in acetone/water (50:50) solution containing 0.5% Tween 20 (polyoxyethylene sorbitan monolaurate, CAS RN 9005-64-5). Compounds are applied at 1000 g/ha unless otherwise stated. The test plants are then grown in a glasshouse under controlled conditions in a glasshouse (at 24° C./16° C., day/night; 14 hours light; 65% humidity) and watered twice daily. After 13 days the test is evaluated for the percentage damage caused to the plant. The biological activities are shown in the following table on a five-point scale (5=81-100%; 4=61-80%; 3=41-60%; 2=21-40%; 1=10-20%; 0=0%; −=not tested).

The test system of assay [8] is Ipornoea hederacea (IPOHE). The assay can be described thus: Post-emergence Test, IPOHE. Conditions: sprayed after 8 days cultivation, 1000 g/ha, evaluated after 13 days. The procedure: as §1
The test system of assay [9] is Echinochloa crus-galli (ECHCG). As to the kind of experiment: Post-emergence Test, ECHCG. The following applies: sprayed after 8 days cultivation, 1000 g/ha, evaluated after 13 days. On the procedure: as §1
The subject of assay [10] is Setaria faberi (SETFA). The assay can be described thus: Post-emergence Test, SETFA. Conditions: sprayed after 8 days cultivation, 1000 g/ha, evaluated after 13 days. The procedure:
as §1

Assay [11] concerns ZEAMX. As to the kind of experiment: Post-emergence Test, ZEAMX. Conditions: sprayed after 8 days cultivation, 1000 g/ha, evaluated after 13 days. The procedure:
[The procedure below names another target; the source lists this target under the same test.] as §1

Assay [12] deals with ABUTH. The assay can be described thus: Post-emergence Test, ABUTH. The following applies: sprayed after 8 days cultivation, 1000 g/ha, evaluated after 13 days. On the procedure:
[The procedure below names another target; the source lists this target under the same test.] as §1

Take `O=C(O)c1nn(-c2ccc(OC(F)(F)F)cc2)c2cccc(N3CCCC3)c2c1=O` [Compound P23, 4-oxo-5-pyrrolidin-1-yl-1-[4-(trifluoromethoxy)phenyl] cinnoline-3-carboxylic acid]: the “percentage damage caused to the plant, AMARE” value in assay [1] and in assay [7] was 0 (0=0%) throughout. The “percentage damage caused to the plant, IPOHE” value in assay [2] and in [8] was 0 (0=0%) each time. Moreover, the “percentage damage caused to the plant, ECHCG” value in [3] and in [9] was 0 (0=0%) each time. For the same molecule, the “percentage damage caused to the plant, SETFA” value in assay [4] and in [10] was 0 (0=0%) each time. The “percentage damage caused to the plant, ZEAMX” value in assay [5] and in assay [11] was 0 (0=0%) in each case. Also, the “percentage damage caused to the plant, ABUTH” value in assay [6] and in assay [12] was 0 (0=0%) throughout.
Turning to `O=C(O)c1nn(-c2ccc(OC(F)(F)F)cc2)c2cccc(N3CCOCC3)c2c1=O` [Compound P25, 5-morpholino-4-oxo-1-[4-(trifluoromethoxy)phenyl] cinnoline-3-carboxylic acid], the “percentage damage caused to the plant, AMARE” value in assay [1] and in [7] was 0 (0=0%) in each case. For the same molecule, the “percentage damage caused to the plant, IPOHE” value in assay [2] and in assay [8] was 0 (0=0%) throughout. Moreover, the “percentage damage caused to the plant, ECHCG” value in assay [3] and in assay [9] was 0 (0=0%) in each case. Also, the “percentage damage caused to the plant, SETFA” value in [4] and in [10] was 0 (0=0%) throughout. The “percentage damage caused to the plant, ZEAMX” value in [5] and in assay [11] was 0 (0=0%) each time. In addition, the “percentage damage caused to the plant, ABUTH” value in assay [6] and in assay [12] was 0 (0=0%) in each case.
Turning to `O=C(O)c1nn(-c2ccc(OC(F)(F)F)cc2)c2cccc(N3CCCCC3)c2c1=O` [Compound P24, 4-oxo-5-(1-piperidyl)-1-[4-(trifluoromethoxy)phenyl] cinnoline-3-carboxylic acid], the “percentage damage caused to the plant, AMARE” value in [1] and in [7] was 0 (0=0%) throughout. For the same molecule, the “percentage damage caused to the plant, IPOHE” value in assay [2] and in assay [8] was 0 (0=0%) each time. Also, the “percentage damage caused to the plant, ECHCG” value in assay [3] was 1 (1=10-20%); in assay [9], 0 (0=0%). Further, the “percentage damage caused to the plant, SETFA” value in [4] and in assay [10] was 0 (0=0%) each time. Further, the “percentage damage caused to the plant, ZEAMX” value in assay [5] and in assay [11] was 0 (0=0%) each time. For the same molecule, the “percentage damage caused to the plant, ABUTH” value in [6] and in assay [12] was 1 (1=10-20%) throughout.
With `O=C(O)c1nn(-c2ccc(OC(F)(F)F)cc2)c2cccc(C(F)F)c2c1=O` [Compound P37, 5-(difluoromethyl)-4-oxo-1-[4-(trifluoromethoxy)phenyl] cinnoline-3-carboxylic acid], the “percentage damage caused to the plant, AMARE” value in assay [1] was 0 (0=0%); in assay [7] it was 1 (1=10-20%). Moreover, the “percentage damage caused to the plant, IPOHE” value is given as 0 (0=0%) in [2] and 1 (1=10-20%) in [8]. For the same molecule, the “percentage damage caused to the plant, ECHCG” value in [3] is on record as 0 (0=0%); in assay [9], 2 (2=21-40%). Moreover, the figures for the “percentage damage caused to the plant, SETFA” value in assay [4] and in [10] were 0 (0=0%) and 2 (2=21-40%), respectively. In addition, the “percentage damage caused to the plant, ZEAMX” value in assay [5] is reported as 0 (0=0%); in [11], 1 (1=10-20%). Also, the “percentage damage caused to the plant, ABUTH” value in assay [6] and in [12] was 0 (0=0%) each time.
In the case of `CCOC(=O)c1nn(-c2ccc(OC(F)(F)F)cc2)c2cccc(-n3ncc(C(F)(F)F)n3)c2c1=O` [Compound P34, ethyl 4-oxo-1-[4-(trifluoromethoxy)phenyl]-5-[4-(trifluoromethyl)triazol-2-yl]cinnoline-3-carboxylate], the “percentage damage caused to the plant, AMARE” value in [1] and in assay [7] was 0 (0=0%) throughout. Besides, the “percentage damage caused to the plant, IPOHE” value in assay [2] and in assay [8] was 0 (0=0%) throughout. In addition, the “percentage damage caused to the plant, ECHCG” value in [3] and in assay [9] was 0 (0=0%) in each case. The “percentage damage caused to the plant, SETFA” value in assay [4] and in assay [10] was 0 (0=0%) each time. Also, the “percentage damage caused to the plant, ZEAMX” value in [5] is 2 (2=21-40%); in assay [11], 0 (0=0%). In addition, the “percentage damage caused to the plant, ABUTH” value in assay [6] and in [12] was 0 (0=0%) throughout.
Take `CCOC(=O)c1nn(-c2ccc(OC(F)(F)F)cc2)c2cccc(CC#N)c2c1=O` [Compound P35, ethyl 5-(cyanomethyl)-4-oxo-1-[4-(trifluoromethoxy)phenyl] cinnoline-3-carboxylate]: the figures for the “percentage damage caused to the plant, AMARE” value in assay [1] and in assay [7] were 1 (1=10-20%) and 0 (0=0%), respectively. Also, the “percentage damage caused to the plant, IPOHE” value in [2] and in assay [8] was 0 (0=0%) throughout. Further, the “percentage damage caused to the plant, ECHCG” value in assay [3] is on record as 5 (5=81-100%); in [9] it was 4 (4=61-80%). The “percentage damage caused to the plant, SETFA” value was 5 (5=81-100%) in assay [4] and 4 (4=61-80%) in assay [10]. For the same molecule, the “percentage damage caused to the plant, ZEAMX” value in assay [5] was 2 (2=21-40%); in assay [11] it was 3 (3=41-60%). In addition, the “percentage damage caused to the plant, ABUTH” value in [6] and in [12] was 0 (0=0%) in each case.
Consider `O=C(O)c1nn(-c2ccc(OC(F)(F)F)cc2)c2cccc(-n3cc(C(F)(F)F)cn3)c2c1=O` [Compound P22, 4-oxo-1-[4-(trifluoromethoxy)phenyl]-5-[4-(trifluoromethyl)pyrazol-1-yl]cinnoline-3-carboxylic acid], for which the “percentage damage caused to the plant, AMARE” value is reported as 2 (2=21-40%) in assay [1] and 4 (4=61-80%) in assay [7]. Also, the “percentage damage caused to the plant, IPOHE” value in [2] is reported as 0 (0=0%); in assay [8], 1 (1=10-20%). Besides, the “percentage damage caused to the plant, ECHCG” value in assay [3] and in [9] was 0 (0=0%) throughout. For the same molecule, the “percentage damage caused to the plant, SETFA” value in [4] is on record as 0 (0=0%); in [10], 2 (2=21-40%). Moreover, the “percentage damage caused to the plant, ZEAMX” value is 0 (0=0%) in assay [5] and 2 (2=21-40%) in assay [11]. Also, the “percentage damage caused to the plant, ABUTH” value is on record as 0 (0=0%) in assay [6] and 1 (1=10-20%) in assay [12].
`CCOC(=O)c1nn(-c2ccc(OC(F)(F)F)cc2)c2cccc(-n3cc(C(F)(F)F)nn3)c2c1=O` [Compound P33, ethyl 4-oxo-1-[4-(trifluoromethoxy)phenyl]-5-[4-(trifluoromethyl)triazol-1-yl]cinnoline-3-carboxylate]: the “percentage damage caused to the plant, AMARE” value in assay [1] and in assay [7] was 0 (0=0%) throughout. Moreover, the “percentage damage caused to the plant, IPOHE” value in [2] and in [8] was 0 (0=0%) throughout. Moreover, the “percentage damage caused to the plant, ECHCG” value in assay [3] and in assay [9] was 0 (0=0%) each time. In addition, the “percentage damage caused to the plant, SETFA” value in assay [4] and in assay [10] was 0 (0=0%) each time. The “percentage damage caused to the plant, ZEAMX” value in [5] is recorded as 1 (1=10-20%); in assay [11], 0 (0=0%). Besides, the “percentage damage caused to the plant, ABUTH” value in assay [6] and in [12] was 0 (0=0%) each time.
